Here are results for one molecule from paper PMC4791286, “Puquitinib mesylate, an inhibitor of phosphatidylinositol 3-kinase p110δ, for treating relapsed or refractory non-Hodgkin's lymphoma” (Oncotarget, 2015).

One may read the IC50 as the concentration needed to halve the response being measured.

Molecules are shown by their SMILES. Counter-ions that a name gives are not always drawn. Like-named read-outs stand apart in the source and are kept apart here.

Series [1] is described as follows: Phase I study, pharmacokinetics of XC-302 in patients. In kind it is in vivo, human. As to the method:
Detailed pharmacokinetic were analyzed by taking blood samples before (within 1 hour) and after (every 2 hours) dosing on days 1, 28 of cycle 1. Plasma concentrations of XC-302 were measured with a validated liquid chromatography assay. Pharmacokinetic measures, such as the maximum plasma concentration (Cmax) and area under the time-concentration curve (AUC), were estimated in every patient.

In a further series the test system is KDR. Further details: method as in earlier work. To be noted: ref unpublished information, personal communication with Wei Mao on January 1, 2013; read-out: IC50, receptor tyrosine kinase KDR; cited from earlier work.
A further series concerns PDGFR β. Further details: method as in earlier work. To be noted: ref unpublished information, personal communication with Wei Mao on January 1, 2013; read-out: IC50, receptor tyrosine kinase PDGFR β; cited from earlier work.
Series [2] concerns vascular endothelial cells lumen. Further details: method as in earlier work. As to conditions: ref unpublished information, personal communication with Wei Mao on January 1, 2013; read-out: IC50, formation of the vascular endothelial cells lumen; cited from earlier work.
Details of series [3]: method as in earlier work. As to conditions: toxicology experiments; ref unpublished information, personal communication with Wei Mao on January 1, 2013; cited from earlier work.
In a further series the test system is CYP1A2 enzyme. To be noted: preliminary study; cited from earlier work.
Another series deals with PI3K p110δ. To be noted: read-out: IC50 against PI3K isoform p110δ; ref unpublished information, personal communication with Wei Mao on January 1, 2013; cited from earlier work.
A further series deals with advanced solid tumors. As to conditions: ref unpublished information, personal communication with Wei Mao on January 1, 2013, cited from earlier work; for Maximum tolerated dose (MTD): single agent, postprandial.

Regarding `c1cnc2ccc(Nc3nc(NC4CC4)c4nc[nH]c4n3)cc2c1` [XC-302, Puquitinib Mesylate], the “Pharmacokinetic response (AUClast and Cmax vs dose)” value in series [1] (25 mg to 50 mg, days 1 and 28) is on record as “linear”. Also, the Tmax in series [1] (human, serum, oral, 25 to 50 mg BID, patients, read-out: Time of peak serum concentration after administration) was approximately 4 h. Moreover, the IC50 is 1000 nM in the series with KDR, 1000 nM in the series with PDGFR β, 100 nM in series [2] and 2.8 nM in the series with PI3K p110δ. Moreover, in series [3], the Toxicity result is “low toxicity”. In the series with CYP1A2 enzyme, the “Inhibition of CYP1A2 enzyme activity” value is recorded as “irreversibly inhibited”. In addition, in the series on advanced solid tumors (advanced solid tumors), the Disease control rate is reported as 52.5%. Further, the Oral bioavailability result with advanced solid tumors (clinical PK monitoring) is given as “good oral bioavailability”. Moreover, the “Maximum tolerated dose (MTD)” value is recorded as 75 mg in the series on advanced solid tumors (continuous daily schedule) and 50 mg in the series with advanced solid tumors (twice daily (BID)).
